Data: patent publication US7524853B2 (Solvay Pharmaceuticals B.V., priority 2003, dated 2009)

Legend:
Format in all cases: cell-based
[1] = biological target: T1, 17β-hydroxysteroid dehydrogenase type 1 (17β-HSD type 1) (Homo sapiens, UniProt P14061); assay: Inhibition of 17β-HSD type 1 in MCF-7 cells stably expressing the isoenzyme (tritium labeled estrone conversion, HPLC); details: MCF7, MCF-7 cells expressing 17β-HSD type 1, 2 nM tritium labeled estrone; for inhibition at 1 µM: 1 μM test compound, read-out: % Inhibition HSD1 1 μM; for inhibition at 10 µM: 10 μM test compound, read-out: % Inhibition HSD1 10 μM
T1 construct: expressed in transfected cells; host or cells: MCF-7
T1 sequence (P14061 1-328): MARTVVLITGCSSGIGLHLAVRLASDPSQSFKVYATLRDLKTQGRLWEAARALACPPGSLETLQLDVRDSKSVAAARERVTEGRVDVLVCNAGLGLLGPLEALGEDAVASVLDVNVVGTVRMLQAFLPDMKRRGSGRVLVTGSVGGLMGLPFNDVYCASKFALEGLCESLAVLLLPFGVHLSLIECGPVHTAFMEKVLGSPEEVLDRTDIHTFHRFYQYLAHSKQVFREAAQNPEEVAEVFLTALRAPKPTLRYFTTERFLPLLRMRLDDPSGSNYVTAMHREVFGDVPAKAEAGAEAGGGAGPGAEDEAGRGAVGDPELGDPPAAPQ
Procedure, shortened: (§1)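 Cells: stable MCF-7 transfectants per isoenzyme. Step one, add compound (two concentrations) plus 2 nM labelled substrate to growth medium. Step two, remove medium at a set time and stop with trichloroacetic acid. Step three, quantify conversion by HPLC with flow scintillation.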

[2] = biological target: T2, 17β-hydroxysteroid dehydrogenase type 3 (17β-HSD type 3) (Homo sapiens, UniProt P37058); assay: Inhibition of 17β-HSD type 3 in MCF-7 cells stably expressing the isoenzyme (tritium labeled androstenedione conversion, HPLC); details: MCF7, MCF-7 cells expressing 17β-HSD type 3, 2 nM tritium labeled androstenedione; for inhibition at 1 µM: 1 μM test compound, read-out: % Inhibition HSD3 1 μM; for inhibition at 10 µM: 10 μM test compound, read-out: % Inhibition HSD3 10 μM
T2 construct: expressed in transfected cells; host or cells: MCF-7
T2 sequence (P37058 1-310): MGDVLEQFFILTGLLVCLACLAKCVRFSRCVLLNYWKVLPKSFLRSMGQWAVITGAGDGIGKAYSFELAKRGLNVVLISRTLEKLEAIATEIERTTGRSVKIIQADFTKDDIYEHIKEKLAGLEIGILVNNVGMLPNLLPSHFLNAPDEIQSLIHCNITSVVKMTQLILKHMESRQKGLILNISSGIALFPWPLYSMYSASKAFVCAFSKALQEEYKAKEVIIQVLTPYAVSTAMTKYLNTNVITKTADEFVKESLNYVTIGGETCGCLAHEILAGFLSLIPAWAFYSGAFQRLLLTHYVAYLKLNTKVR
Procedure, shortened: as §1

[3] = biological target: T3, 17β-hydroxysteroid dehydrogenase type 2 (17β-HSD type 2) (Homo sapiens, UniProt P37059); assay: Inhibition of 17β-HSD type 2 in MCF-7 cells stably expressing the isoenzyme (tritium labeled estradiol conversion, HPLC); details: MCF7, MCF-7 cells expressing 17β-HSD type 2, 2 nM tritium labeled estradiol; for inhibition at 1 µM: 1 μM test compound, read-out: % Inhibition HSD2 1 μM; for inhibition at 10 µM: 10 μM test compound, read-out: % Inhibition HSD2 10 μM
T3 construct: expressed in transfected cells; host or cells: MCF-7
T3 sequence (P37059 1-387): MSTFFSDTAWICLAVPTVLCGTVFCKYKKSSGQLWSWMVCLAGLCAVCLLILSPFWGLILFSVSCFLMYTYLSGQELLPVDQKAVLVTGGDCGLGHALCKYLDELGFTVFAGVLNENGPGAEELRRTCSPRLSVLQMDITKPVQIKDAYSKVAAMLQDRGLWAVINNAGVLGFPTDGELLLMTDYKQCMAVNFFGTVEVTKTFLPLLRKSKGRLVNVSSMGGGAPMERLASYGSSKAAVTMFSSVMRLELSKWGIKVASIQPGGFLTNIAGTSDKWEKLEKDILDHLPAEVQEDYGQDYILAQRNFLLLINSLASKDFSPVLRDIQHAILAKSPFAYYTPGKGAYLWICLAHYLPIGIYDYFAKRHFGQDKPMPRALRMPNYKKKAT
Procedure, shortened: as §1

| Structure (SMILES) | inhibition at 1 µM [1] [%] | inhibition at 10 µM [1] [%] | inhibition at 1 µM [2] [%] | inhibition at 10 µM [2] [%] | inhibition at 1 µM [3] [%] | inhibition at 10 µM [3] [%] |
| --- | --- | --- | --- | --- | --- | --- |
| CCCCn1c(-c2cc(OC)c(OC)c(OC)c2)nc2sc3c(c2c1=O)CC(C)CC3 (stereo not drawn) [No. 691, 3-Butyl-6-methyl-2-(3,4,5-trimethoxyphenyl)-5,6,7,8-tetrahydro-3H-benzo[4,5]thieno[2,3-d]pyrimidin-4-one] | 7 | 22.6 | -5.3 | 11.9 | 2.1 | -6.3 |
| COCCn1c(-c2cccs2)nc2sc3c(c2c1=O)CCCC3 [No. 74, 3-(2-Methoxyethyl)-2-thiophen-2-yl-5,6,7,8-tetrahydro-3H-benzo[4,5]thieno[2,3-d]pyrimidin-4-one] | 11.7 | 12.2 | 8.3 | 8.3 | 33.2 | 26.1 |
| O=C1c2sc3nc(-c4cccs4)n(Cc4ccccc4)c(=O)c3c2CCC1Br (stereo not drawn) | 28.5 | 23.2 | 21.8 | 25.6 | 32.8 | 48.4 |
| CCCc1nc2sc3c(c2c(=O)n1Cc1cc(Br)ccc1OC)CCC(Br)C3=O (stereo not drawn) [No. 96] | 19.5 | 65.1 | 13 | 37.5 | 17.2 | 21.9 |

Results, then the compound that gave them:

| inhibition at 1 µM [1] [%] | inhibition at 10 µM [1] [%] | inhibition at 1 µM [2] [%] | inhibition at 10 µM [2] [%] | inhibition at 1 µM [3] [%] | inhibition at 10 µM [3] [%] | Structure (SMILES) |
| --- | --- | --- | --- | --- | --- | --- |
| 37 | 39.3 | 22.7 | 35.4 | 47.3 | 51 | COc1cccc(-c2nc3sc4c(c3c(=O)n2Cc2ccccc2)CCC(Br)C4=O)c1 (stereo not drawn) [No. 80, 3-Benzyl-7-bromo-2-(m-methoxyphenyl)-6,7-dihydro-3H,5H-benzo[4,5]thieno[2,3-d]pyrimidine-4,8-dione] |
| 3.2 | 38.4 | -19.4 | 29.1 | -3.2 | 7.8 | COc1cc(-c2nc3sc4c(c3c(=O)n2Cc2ccccc2)CCC(C=O)=C4Cl)cc(OC)c1OC [No. 3, 3-Benzyl-8-chloro-4-oxo-2-(3,4,5-trimethoxyphenyl)-3,4,5,6-tetrahydro-benzo[4,5]thieno[2,3-d]pyrimidine-7-carbaldehyde] |
| 4.7 | 11.6 | -2.4 | 4.3 | 0.1 | 19.1 | COc1cc(-c2nc3sc4c(O)c(Br)ccc4c3c(=O)n2Cc2ccccc2)c(Br)c(OC)c1OC [No. 52, 3-benzyl-7-bromo-2-(2-bromo-3,4,5-trimethoxyphenyl)-8-hydroxy-3H-benzo[4,5]thieno[2,3-d]pyrimidin-4-one] |
| 17.3 | 58.7 | 11.7 | 40.5 | 1.5 | 33.2 | COc1cc(-c2nc3sc4c(c3c(=O)n2Cc2ccccc2)CCCC4=O)cc(OC)c1OC [No. 2, 3-Benzyl-2-(3,4,5-trimethoxyphenyl)-6,7-dihydro-3H,5H-benzo[4,5]thieno[2,3-d]pyrimidine-4,8-dione] |
| 28 | 43.6 | 3 | 59.1 | 19.5 | 19.9 | COc1ccc(-c2nc3sc4c(c3c(=O)n2Cc2ccccc2)CCCC4=O)cc1 [No. 13, 3-Benzyl-2-(p-methoxyphenyl)-6,7-dihydro-3H,5H-benzo[4,5]thieno[2,3-d]pyrimidine-4,8-dione] |
